Consider one compound from ChEMBL document CHEMBL5634130, “Exploring the structural-activity relationship of hexahydropyrazino[1,2-d]pyrido[3,2-b][1,4]oxazine derivatives as potent and orally-bioavailable PARP7 inhibitors” (Eur J Med Chem, 2023).

Series [1] is described as follows: Metabolic stability in rat liver microsomes assessed as intrinsic clearance preincubated for 5 mins followed by NADPH addition measured for 1 hr by LC-MS analysis. The series is classed as ADME, Microsome. The following applies: time 65 min, read-out: CLH.
Series [2] is described as follows: Toxicity in […] SCID mouse model xenografted with human NCI-H1373 cells assessed as animal death at 30 mg/kg, po measured for 21 days. The following applies: in vivo, 504 h, time 21 day. In kind it is organism-based. Background: In xenograft studies the graft and the host belong to different species.
Another series relates to RAW264.7. Nature of the series: Inhibition of PARP7 in mouse RAW264.7 cells assessed as increase in IFN-beta level incubated for 24 hrs by ELISA. In kind it is cell-based. In general terms: An ELISA detects its analyte on a solid surface through an enzyme-linked reagent.
Series [3] can be described thus: AUC in fasted Beagle dog at 2 mg/kg, iv measured for 24 hrs by LC-MS analysis. In kind it is ADME, organism-based, Canis lupus familiaris. The following applies: Beagle, in vivo.
A further series deals with Cytochrome P450 2C19 (Homo sapiens, UniProt P33261). Description: Inhibition of CYP2C19 in human liver microsomes using mephenytoin as substrate preincubated for 10 mins followed by substrate addition measured for 30 mins by LC-MS analysis. The series is classed as ADME, Microsome. (In general: Liver microsomes are vesicles of endoplasmic reticulum, rich in cytochrome P450 enzymes.)
Sequence of Cytochrome P450 2C19 (P33261 whole entry): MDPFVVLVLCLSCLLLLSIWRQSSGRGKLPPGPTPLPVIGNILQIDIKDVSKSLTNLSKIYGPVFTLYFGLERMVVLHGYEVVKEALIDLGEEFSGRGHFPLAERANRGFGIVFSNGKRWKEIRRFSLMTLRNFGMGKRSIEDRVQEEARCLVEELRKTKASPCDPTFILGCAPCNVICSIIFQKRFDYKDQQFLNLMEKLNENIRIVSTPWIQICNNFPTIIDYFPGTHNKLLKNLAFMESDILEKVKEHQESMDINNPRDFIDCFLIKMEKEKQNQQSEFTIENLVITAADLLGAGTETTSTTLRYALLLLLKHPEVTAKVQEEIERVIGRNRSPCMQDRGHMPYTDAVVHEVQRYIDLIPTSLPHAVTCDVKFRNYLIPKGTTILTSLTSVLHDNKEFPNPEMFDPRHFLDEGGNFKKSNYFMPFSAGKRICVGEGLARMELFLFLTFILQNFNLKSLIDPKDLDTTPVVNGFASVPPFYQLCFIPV

Series [4] addresses T1, Protein mono-ADP-ribosyltransferase TIPARP (Homo sapiens, UniProt Q7Z3E1).
T1 sequence (Q7Z3E1 whole entry): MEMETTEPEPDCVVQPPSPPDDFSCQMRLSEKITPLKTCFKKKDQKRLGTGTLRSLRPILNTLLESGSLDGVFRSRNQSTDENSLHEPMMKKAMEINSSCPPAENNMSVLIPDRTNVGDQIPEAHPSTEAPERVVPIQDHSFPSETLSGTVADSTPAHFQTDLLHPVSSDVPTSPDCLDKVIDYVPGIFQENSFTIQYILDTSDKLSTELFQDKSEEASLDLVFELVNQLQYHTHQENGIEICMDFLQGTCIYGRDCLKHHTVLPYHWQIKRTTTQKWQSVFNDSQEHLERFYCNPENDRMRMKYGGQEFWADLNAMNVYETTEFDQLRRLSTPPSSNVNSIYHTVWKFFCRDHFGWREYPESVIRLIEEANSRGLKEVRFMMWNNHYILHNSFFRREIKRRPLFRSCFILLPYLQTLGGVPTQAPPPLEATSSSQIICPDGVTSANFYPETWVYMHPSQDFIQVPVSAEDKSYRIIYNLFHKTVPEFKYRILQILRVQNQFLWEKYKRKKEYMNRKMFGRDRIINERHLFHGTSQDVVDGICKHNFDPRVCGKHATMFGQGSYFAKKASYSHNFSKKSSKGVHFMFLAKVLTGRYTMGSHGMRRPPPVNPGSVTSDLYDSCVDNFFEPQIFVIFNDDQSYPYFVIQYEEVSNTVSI
Nature of the series: Inhibition of PARP7 (unknown origin) using histone as substrate incubated for 1 hr by chemiluminescence assay.

The nature of series [5]: Thermodynamic solubility of compound at pH 7.4. In kind it is physicochemical. The following applies: buffer, read-out: Therm_solubility.
The nature of series [6]: Plasma protein binding in monkey at 2 uM incubated for 1 hr by LC/MS analysis. The series is classed as ADME, cell-free, Macaca mulatta. The following applies: rhesus monkey, read-out: PPB (converted).
In series [7] the target is T2, Protein mono-ADP-ribosyltransferase PARP11 (Homo sapiens, UniProt Q9NR21).
T2 sequence (Q9NR21 whole entry): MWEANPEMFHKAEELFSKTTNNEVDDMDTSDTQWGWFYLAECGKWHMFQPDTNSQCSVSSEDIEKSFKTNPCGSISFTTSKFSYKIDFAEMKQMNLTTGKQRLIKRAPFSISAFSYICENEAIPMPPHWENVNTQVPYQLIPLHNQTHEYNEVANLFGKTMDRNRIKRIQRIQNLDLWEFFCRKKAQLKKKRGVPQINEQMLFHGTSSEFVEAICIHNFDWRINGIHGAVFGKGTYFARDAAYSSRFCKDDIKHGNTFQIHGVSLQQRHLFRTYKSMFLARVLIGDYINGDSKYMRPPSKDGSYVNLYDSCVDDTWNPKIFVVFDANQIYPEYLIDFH
Nature of the series: Inhibition of PARP11 (unknown origin).

Series [8] is described as follows: Plasma protein binding in mouse at 2 uM incubated for 1 hr by LC/MS analysis. The following applies: read-out: PPB (converted). The series is classed as ADME, cell-free.
Series [9] in a line: Half life in fasted ICR mouse at 2 mg/kg, iv measured for 24 hrs by LC-MS analysis. In kind it is ADME, organism-based. The following applies: in vivo.
In series [10] the target is Voltage-gated inwardly rectifying potassium channel KCNH2 (Homo sapiens, UniProt Q12809). Description: Inhibition of hERG transfected in HEK293 cells at <10 uM by electrography. In kind it is toxicity, cell-based. The following applies: hek293, 10 µM.
Sequence of Voltage-gated inwardly rectifying potassium channel KCNH2 (Q12809 whole entry): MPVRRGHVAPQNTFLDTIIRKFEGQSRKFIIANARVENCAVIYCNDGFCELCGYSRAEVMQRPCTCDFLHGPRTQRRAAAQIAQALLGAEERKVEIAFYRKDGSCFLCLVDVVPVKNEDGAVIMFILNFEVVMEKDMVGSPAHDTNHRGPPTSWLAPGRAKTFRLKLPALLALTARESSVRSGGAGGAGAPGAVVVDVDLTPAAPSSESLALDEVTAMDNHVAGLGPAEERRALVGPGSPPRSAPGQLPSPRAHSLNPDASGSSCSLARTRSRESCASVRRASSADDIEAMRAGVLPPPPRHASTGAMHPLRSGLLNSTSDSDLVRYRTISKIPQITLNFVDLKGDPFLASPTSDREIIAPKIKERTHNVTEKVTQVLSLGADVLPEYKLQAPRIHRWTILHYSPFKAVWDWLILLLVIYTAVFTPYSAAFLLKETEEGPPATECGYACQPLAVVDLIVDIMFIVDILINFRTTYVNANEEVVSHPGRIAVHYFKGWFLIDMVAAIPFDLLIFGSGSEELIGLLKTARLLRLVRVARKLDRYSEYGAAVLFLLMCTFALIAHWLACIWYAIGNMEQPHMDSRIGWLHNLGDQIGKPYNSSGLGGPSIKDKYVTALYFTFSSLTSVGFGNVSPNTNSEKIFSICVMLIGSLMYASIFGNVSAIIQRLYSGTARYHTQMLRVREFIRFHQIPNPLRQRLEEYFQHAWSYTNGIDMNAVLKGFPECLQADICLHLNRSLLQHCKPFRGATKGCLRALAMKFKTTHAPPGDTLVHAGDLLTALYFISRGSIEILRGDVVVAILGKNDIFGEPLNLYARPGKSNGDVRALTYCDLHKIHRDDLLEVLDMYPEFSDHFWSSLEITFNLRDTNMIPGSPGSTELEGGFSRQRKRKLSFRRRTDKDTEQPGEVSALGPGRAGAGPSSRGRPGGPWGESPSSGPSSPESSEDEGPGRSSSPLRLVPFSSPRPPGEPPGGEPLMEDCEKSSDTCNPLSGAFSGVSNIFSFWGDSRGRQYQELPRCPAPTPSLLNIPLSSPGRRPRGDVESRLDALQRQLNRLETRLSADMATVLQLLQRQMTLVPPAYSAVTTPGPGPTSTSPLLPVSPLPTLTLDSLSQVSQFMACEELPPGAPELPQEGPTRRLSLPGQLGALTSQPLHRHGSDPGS
Series [11] can be described thus: Thermodynamic solubility of compound at pH 6.5. The series is classed as physicochemical. The following applies: buffer, read-out: Therm_solubility.
Series [12] in a line: Oral bioavailability in fasted ICR mouse at 10 mg/kg measured for 24 hrs by LC-MS analysis. In kind it is ADME, organism-based. The following applies: in vivo.
A short description of series [13]: Clearance in fasted Beagle dog at 2 mg/kg, iv measured for 24 hrs by LC-MS analysis. In kind it is ADME, organism-based, Canis lupus familiaris. The following applies: in vivo.
Series [14] can be described thus: Oral bioavailability in fasted Beagle dog at 10 mg/kg measured for 24 hrs by LC-MS analysis. The following applies: in vivo. The series is classed as ADME, organism-based, Canis lupus familiaris.
Series [15] in a line: Kinetic solubility of compound at pH 7.4. The series is classed as physicochemical. The following applies: buffer, read-out: Kinetic_solubility.
The target in series [16] is T3, Protein mono-ADP-ribosyltransferase PARP12 (Homo sapiens, UniProt Q9H0J9).
T3 sequence (Q9H0J9 whole entry): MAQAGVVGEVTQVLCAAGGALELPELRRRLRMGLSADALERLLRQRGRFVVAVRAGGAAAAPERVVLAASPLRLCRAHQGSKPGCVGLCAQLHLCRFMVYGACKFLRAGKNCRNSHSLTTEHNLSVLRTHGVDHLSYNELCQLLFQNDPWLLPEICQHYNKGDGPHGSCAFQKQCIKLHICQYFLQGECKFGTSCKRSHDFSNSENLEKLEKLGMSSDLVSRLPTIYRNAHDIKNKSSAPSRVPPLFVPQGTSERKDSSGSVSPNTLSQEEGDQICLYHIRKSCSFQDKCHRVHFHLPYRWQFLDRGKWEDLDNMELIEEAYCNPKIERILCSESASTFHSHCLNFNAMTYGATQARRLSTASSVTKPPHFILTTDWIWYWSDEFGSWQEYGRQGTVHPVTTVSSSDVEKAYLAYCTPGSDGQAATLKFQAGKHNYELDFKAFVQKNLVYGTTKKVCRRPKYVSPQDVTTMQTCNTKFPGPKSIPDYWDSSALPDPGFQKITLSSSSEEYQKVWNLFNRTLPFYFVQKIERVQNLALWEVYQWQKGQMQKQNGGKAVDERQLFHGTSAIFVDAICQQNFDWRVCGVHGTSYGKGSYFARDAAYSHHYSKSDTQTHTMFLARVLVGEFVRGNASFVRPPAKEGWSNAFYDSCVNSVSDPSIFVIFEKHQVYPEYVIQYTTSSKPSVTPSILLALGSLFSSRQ
Description: Inhibition of PARP12 (unknown origin).

Series [17] can be described thus: Cmax in fasted ICR mouse at 10 mg/kg, po measured for 24 hrs by LC-MS analysis. The following applies: in vivo. In kind it is ADME, organism-based.
Series [18] concerns the target Poly [ADP-ribose] polymerase 2 (Homo sapiens, UniProt Q9UGN5). Description: Inhibition of PARP2 (unknown origin).
Series [19] in a line: Passive permeability in MDCKII-MDR1 cells incubated for 2 hrs by LC-MS analysis. The following applies: dog, MDCK-MDR1, read-out: permeability. The series is classed as ADME, cell-based, Canis lupus familiaris.
Series [20] can be described thus: Volume of distribution at steady state in fasted ICR mouse at 2 mg/kg, iv measured for 24 hrs by LC-MS analysis. In kind it is ADME, organism-based. The following applies: in vivo, read-out: Vdss.

≈ marks a conversion by molar mass, not a printed value. Calls of active or inactive are those of the source.

Sequence of Poly [ADP-ribose] polymerase 2 (Q9UGN5 whole entry): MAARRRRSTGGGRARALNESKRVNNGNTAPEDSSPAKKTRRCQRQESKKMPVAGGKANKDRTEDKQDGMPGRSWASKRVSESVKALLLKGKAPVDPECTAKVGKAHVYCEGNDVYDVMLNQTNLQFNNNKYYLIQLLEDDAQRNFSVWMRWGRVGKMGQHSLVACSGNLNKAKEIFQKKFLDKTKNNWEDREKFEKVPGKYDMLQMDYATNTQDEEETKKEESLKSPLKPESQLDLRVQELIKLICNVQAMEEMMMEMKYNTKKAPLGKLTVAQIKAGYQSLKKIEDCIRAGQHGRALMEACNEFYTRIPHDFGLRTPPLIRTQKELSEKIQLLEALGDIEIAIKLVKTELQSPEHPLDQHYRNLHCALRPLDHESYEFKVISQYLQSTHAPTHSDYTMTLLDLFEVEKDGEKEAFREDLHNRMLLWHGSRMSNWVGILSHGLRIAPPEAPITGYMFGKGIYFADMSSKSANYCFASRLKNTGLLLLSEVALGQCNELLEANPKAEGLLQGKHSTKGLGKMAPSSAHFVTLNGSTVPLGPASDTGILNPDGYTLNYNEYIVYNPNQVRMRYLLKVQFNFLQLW

Take `O=C(CCOC[C@@H]1CCN1c1cn[nH]c(=O)c1C(F)(F)F)N1CCN2c3ncc(C(F)(F)F)cc3OC[C@@H]2C1`: the CLint scaled in series [1] was 88.8 mL/min/kg. Besides, in series [2], the Activity result is recorded as “Non-Toxic”. The inhibition result with RAW264.7 is “Active”. Besides, in [3], the AUC (as a rule, concentration integrated over time) at 24 h stood at 3480 ng·h/mL. Besides, the half-inhibitory concentration (IC50) (commonly the concentration at which inhibition is half-maximal) is 7550 nM at Cytochrome P450 2C19; 0.56 nM in series [4]; over 1000 nM in series [7]; 360 nM in series [16]; 221 nM in [18]. The solubility thermodynamic in series [5] turned out to be 114 µg/mL (≈ 203 µM); in series [11] it was 113 µg/mL (≈ 201 µM). For the same compound, the fraction unbound at 1 h, 2 µM in [6] was 0.004; in series [8], 0.019. In addition, the half-life (usually the time needed for the level to fall by half in the phase considered) in series [9] was 42 min. Besides, the “inhibition (INH)” value in series [10] is reported as “Not Active”. Also, the figures for the bioavailability in series [12] and in series [14] were 33.9% and 45.2%, respectively. The clearance (usually a measure of how efficiently the substance is removed, as volume per time) in series [13] was determined as 7.5 mL/min/kg. For the same compound, the solubility kinetic in series [15] was 158 µM (≈ 88.9 µg/mL). Also, the peak level in series [17] (Cmax) was 752 ng/mL. Also, the Papp at 2 h in series [19] amounted to 0.852 ×10⁻⁶ cm/s. For the same compound, the Vd in [20] was determined as 1.77 L/kg.
